Marks after values point to notes of the source that are not given here.
Columns and labels:
SK-MEL-2 cells = test: Antiproliferative effect, neutral red uptake assay, SK-MEL-2 cells; type: cell-based, human
Method: (§1) The SK-MEL-2 and Vero cells (at 5 × 10^4 cells/well) were seeded separately into 96-well plates. After the cells were exposed to the tested compounds (200 µL) for 24 h, neutral red (50 µg/mL) (Sigma-Aldrich, St. Louis, MO, USA) was incorporated into the cells for 2 h. The cells were then washed with ice-cold PBS and lysed using 0.33% HCl in isopropanol. The absorbances of neutral red were measured at 540 nm with a reference wavelength of 660 nm using a UV-microplate reader (Perkin Elmer, Waltham, MA, USA). […] The selective index was calculated from the ratio of the IC50 of Vero and SK-MEL-2 cells.

LAT1 [1] = biological target: T1, LAT1 (Homo sapiens, UniProt Q01650); test: cell-based; conditions: for Percent Inhibition of Sesamol Distribution Volume / Sesamol Distribution Volume in presence of the compound: SK-MEL-2, sesamol 0.1 mM, 10 min; for Percent Inhibition of Sesamol Distribution Volume: competitor at the concentration (BCH, L-tyrosine, L-dopa 1 mM; L-leucine, L-alanine 2 mM; melphalan 0.05 mM); for Sesamol Distribution Volume in presence of the compound: competitor at the concentration printed in the row
T1 sequence (Q01650 whole entry): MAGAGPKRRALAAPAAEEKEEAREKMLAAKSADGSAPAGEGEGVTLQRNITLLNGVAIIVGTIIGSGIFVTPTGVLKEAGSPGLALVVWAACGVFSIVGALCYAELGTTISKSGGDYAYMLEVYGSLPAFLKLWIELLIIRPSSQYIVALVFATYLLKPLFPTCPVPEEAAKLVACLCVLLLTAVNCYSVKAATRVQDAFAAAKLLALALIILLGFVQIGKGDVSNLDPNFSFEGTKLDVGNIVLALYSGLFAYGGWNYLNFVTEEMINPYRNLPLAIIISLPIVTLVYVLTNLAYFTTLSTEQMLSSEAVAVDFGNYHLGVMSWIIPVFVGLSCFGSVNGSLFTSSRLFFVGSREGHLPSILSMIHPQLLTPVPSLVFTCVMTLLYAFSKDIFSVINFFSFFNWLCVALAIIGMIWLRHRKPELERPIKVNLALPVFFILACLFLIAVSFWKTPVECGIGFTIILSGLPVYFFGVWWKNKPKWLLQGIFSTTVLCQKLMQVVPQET
T1 sequence (P08195 102-630 partner): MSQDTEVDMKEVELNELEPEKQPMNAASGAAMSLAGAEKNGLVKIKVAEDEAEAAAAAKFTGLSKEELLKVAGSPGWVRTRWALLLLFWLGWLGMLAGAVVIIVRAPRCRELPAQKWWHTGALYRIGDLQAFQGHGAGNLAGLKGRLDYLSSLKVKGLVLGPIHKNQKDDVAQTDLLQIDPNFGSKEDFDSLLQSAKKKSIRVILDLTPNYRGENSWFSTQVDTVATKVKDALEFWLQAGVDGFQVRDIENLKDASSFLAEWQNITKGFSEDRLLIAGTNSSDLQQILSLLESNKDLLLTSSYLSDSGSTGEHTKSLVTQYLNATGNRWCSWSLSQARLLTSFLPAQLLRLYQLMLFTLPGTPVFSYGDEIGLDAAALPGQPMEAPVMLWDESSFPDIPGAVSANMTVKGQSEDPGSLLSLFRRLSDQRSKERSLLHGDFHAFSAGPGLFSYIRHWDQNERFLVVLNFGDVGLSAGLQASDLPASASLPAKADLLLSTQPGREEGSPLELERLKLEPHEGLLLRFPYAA
Method: (§2) SK-MEL-2 and Vero cells were seeded separately into 24-well plates at 2 × 10^5 cells/well for 24 h. The media was removed, and the cells pre-incubated with HBSS pH 7.4 for 10 min. The cells were used for the following experiments.
(§3) Competitive inhibition of uptake of sesamol was done in both SK-MEL-2 and the Vero cells. […] The cells were washed twice with ice-cold PBS, solubilized in methanol, and centrifuged at 2400× g, at 4 °C for 20 min. The precipitated protein was re-solubilized by 0.1 M NaOH prior to protein determination. The sesamol content was quantified using HPLC assay. The cellular uptake of sesamol was calculated as per the C/M ratio.
(§4) Quantitative analysis of sesamol and L-dopa were performed using a Shimadzu HPLC (LC-2030C-3D) with a UV photodiode array detector (DAD) (Kyoto, Japan). The analysis was based on a BDS Hypersil C-18 column, (4.6 × 250 mm, 5 µm packing, Thermo Fisher Scientific, Waltham, MA, USA). The column temperature was set at 30 °C with a flow rate of 0.8 mL/min. The mobile phase for sesamol quantification was 70% methanol in water, vs. 20% methanol in water for L-dopa. The respective detection wavelength and elution time for sesamol and L-dopa was 297 nm and 280 nm and 4.2 and 4.5 min. The validated sesamol quantification conducted using sesamol spiked cell lysate with high selectivity and clear separation from the endogenous cell lysate as previously reported. The % bias and % precision was determined within and between days, each was maintained below 6%.

Vero cells = test: Antiproliferative effect, neutral red uptake assay, Vero cells; type: cell-based, African green monkey
Method: as §1

LAT1 [2] = biological target: T1, LAT1; test: LAT1 function: competitive uptake of L-dopa in SK-MEL-2 cells; type: cell-based; conditions: for Percent Inhibition of L-Dopa Distribution Volume: competitor (BCH, L-tyrosine, sesamol 1 mM; L-leucine, L-alanine 2 mM; melphalan 0.05 mM); for L-Dopa Distribution Volume in presence of the compound: competitor at the concentration printed in the row
Method: as §2
(§5) Sesamol was also investigated for its affinity to LAT1. […] Competitive uptake was performed for 10 min then the cells were washed twice with ice-cold PBS. The L-dopa was solubilized by 0.1 M HCl and the cell lysate (25 µL) was pipetted for protein determination. […] Intracellular and extracellular L-dopa was quantified by the HPLC assay. The L-dopa uptake was represented as the distribution volume of L-dopa in a cell to media ratio (C/M ratio) as calculated in Section 4.3.1.
as §4, with “The” for “Quantitative analysis of sesamol and L-dopa were performed using a Shimadzu HPLC (LC-2030C-3D) with a UV photodiode array detector (DAD) (Kyoto, Japan). The”, “The respective detection wavelength and elution time for sesamol and L-dopa was 297 nm and 280 nm and 4.2 and 4.5 min.” left out

LAT1 [3] = conditions: Vero cells, sesamol 0.1 mM, 10 min; for Percent Inhibition of Sesamol Distribution Volume: competitor at the concentration (BCH, L-tyrosine, L-dopa 1 mM; L-leucine, L-alanine 2 mM; melphalan 0.05 mM); for Sesamol Distribution Volume in presence of the compound: competitor at the concentration printed in the row
Method: as §2, §3, §4

LAT1 [4] = test: LAT1 function: competitive uptake of L-dopa in Vero cells; type: cell-based, African green monkey; conditions: L-dopa 0.1 mM, 10 min; for Percent Inhibition of L-Dopa Distribution Volume: competitor (BCH, L-tyrosine, sesamol 1 mM; L-leucine, L-alanine 2 mM; melphalan 0.05 mM); for L-Dopa Distribution Volume in presence of the compound: competitor at the concentration printed in the row
Method: as §2, §5, §4

[5] = SK-MEL-2, L-dopa 0.1 mM, 10 min
[6] = SK-MEL-2, read-out: Percent Inhibition of Sesamol Distribution Volume
[7] = SK-MEL-2, read-out: Percent Inhibition of L-Dopa Distribution Volume

NC1(C(=O)O)CC2CCC1C2 (stereo not drawn) [BCH, 2-Amino-2-norbornanecarboxylic acid]
cytotoxicity compared to untreated cells (SK-MEL-2 cells; SK-MEL-2 cells, BCH 1 mM): no cytotoxicity
Percent Inhibition of Sesamol Distribution Volume (LAT1 [1]): 55%
Sesamol Distribution Volume in presence of the compound (LAT1 [1]): 10.3 ± 0.9 µL/mg Protein
cytotoxicity compared to untreated cells (Vero cells; Vero cells, BCH 1 mM): no cytotoxicity
Percent Inhibition of L-Dopa Distribution Volume (LAT1 [2]; [5]): 82%
L-Dopa Distribution Volume in presence of the compound (LAT1 [2]; [5]): 67.3 ± 14.0 µL/mg Protein
Percent Inhibition of Sesamol Distribution Volume (LAT1 [3]): 42%
Sesamol Distribution Volume in presence of the compound (LAT1 [3]): 10.4 ± 1.9 µL/mg Protein
Percent Inhibition of L-Dopa Distribution Volume (LAT1 [4]): 69%
L-Dopa Distribution Volume in presence of the compound (LAT1 [4]): 47.9 ± 3.7 µL/mg Protein

C[C@H](N)C(=O)O [L-Alanine, L-alanine]
inhibition at 2000 µM (LAT1 [1]; [6]): 44%
Sesamol Distribution Volume in presence of the compound (LAT1 [1]): 13.1 ± 0.3 µL/mg Protein
L-Dopa Distribution Volume in presence of the compound (LAT1 [2]; [5]): 121.2 ± 3.6 µL/mg Protein
inhibition at 2000 µM (LAT1 [2]; [7]): 67%
Percent Inhibition of Sesamol Distribution Volume (LAT1 [3]): 25%
Sesamol Distribution Volume in presence of the compound (LAT1 [3]): 13.3 ± 2.0 µL/mg Protein
Percent Inhibition of L-Dopa Distribution Volume (LAT1 [4]): 35%
L-Dopa Distribution Volume in presence of the compound (LAT1 [4]): 101.3 ± 4.0 µL/mg Protein

N[C@@H](Cc1ccc(O)c(O)c1)C(=O)O [L-Dopa, L-dopa]
inhibition at 1000 µM (LAT1 [1]; [6]): 68%
Sesamol Distribution Volume in presence of the compound (LAT1 [1]): 7.4 ± 0.8 µL/mg Protein
L-Dopa Distribution Volume, control (no competitor) (LAT1 [2]; SK-MEL-2, L-dopa 0.1 mM, 10 min, 37 °C): 0% (370.6 ± 13.0)^a µL/mg Protein
Percent Inhibition of Sesamol Distribution Volume (LAT1 [3]): 40% (10.8 ± 2.0)^b,c
L-Dopa Distribution Volume, control (no competitor) (LAT1 [4]; 37 °C): 0% (155.6 ± 17.8)^a µL/mg Protein

CC(C)C[C@H](N)C(=O)O [L-leucine, L-Leucine]
Percent Inhibition of Sesamol Distribution Volume (LAT1 [1]): 50%
Sesamol Distribution Volume in presence of the compound (LAT1 [1]): 11.7 ± 0.7 µL/mg Protein
Percent Inhibition of L-Dopa Distribution Volume (LAT1 [2]; [5]): 75%
L-Dopa Distribution Volume in presence of the compound (LAT1 [2]; [5]): 94.1 ± 13.5 µL/mg Protein
Percent Inhibition of Sesamol Distribution Volume (LAT1 [3]): 23%
Sesamol Distribution Volume in presence of the compound (LAT1 [3]): 13.8 ± 1.4 µL/mg Protein
Percent Inhibition of L-Dopa Distribution Volume (LAT1 [4]): 75%
L-Dopa Distribution Volume in presence of the compound (LAT1 [4]): 39.1 ± 2.3 µL/mg Protein

N[C@@H](Cc1ccc(O)cc1)C(=O)O [L-tyrosine]
Percent Inhibition of Sesamol Distribution Volume (LAT1 [1]): 75%
Sesamol Distribution Volume in presence of the compound (LAT1 [1]): 5.8 ± 0.2 µL/mg Protein
Percent Inhibition of L-Dopa Distribution Volume (LAT1 [2]; [5]): 72%
Percent Inhibition of Sesamol Distribution Volume (LAT1 [3]): 41%
Percent Inhibition of L-Dopa Distribution Volume (LAT1 [4]): 69%
L-Dopa Distribution Volume in presence of the compound (LAT1 [4]): 48.7 ± 11.0 µL/mg Protein

N[C@@H](Cc1ccc(N(CCCl)CCCl)cc1)C(=O)O [Melphalan, melphalan]
IC50 (SK-MEL-2 cells; Homo sapiens, SK-MEL-2, 24 h, read-out: IC50 (cell viability)): 100 µM
Selective Index (SK-MEL-2 cells; ratio of the IC50 of Vero and SK-MEL-2 cells): 6.0
inhibition at 50 µM (LAT1 [1]; [6]): 60%
Sesamol Distribution Volume in presence of the compound (LAT1 [1]): 9.4 ± 0.7 µL/mg Protein
IC50 (Vero cells; Chlorocebus sabaeus, Vero, 24 h, read-out: IC50 (cell viability)): 600 ± 300 µM
inhibition at 50 µM (LAT1 [2]; [7]): 47%
L-Dopa Distribution Volume in presence of the compound (LAT1 [2]; [5]): 196.6 ± 20.3 µL/mg Protein
Percent Inhibition of Sesamol Distribution Volume (LAT1 [3]): 35%
Sesamol Distribution Volume in presence of the compound (LAT1 [3]): 11.7 ± 0.7 µL/mg Protein
Percent Inhibition of L-Dopa Distribution Volume (LAT1 [4]): 39%
L-Dopa Distribution Volume in presence of the compound (LAT1 [4]): 95.5 ± 11.2 µL/mg Protein

Reference: article PMC6865181, “Role of L-Type Amino Acid Transporter 1 (LAT1) for the Selective Cytotoxicity of Sesamol in Human Melanoma Cells” (Molecules, 2019)
